Test results reported in patent US7994209B2, “3-phenoxymethylpyrrolidine compounds” (Theravance, Inc., priority 2009, dated 2011).
Marks after values point to notes of the source that are not given here.

biological target: T1, hSERT (Homo sapiens, UniProt P31645); assay: fluorescence-based serotonin reuptake inhibition assay (Tsuruda et al. 2010; data indicated by an asterisk); format: cell-based; design: expressed in transfected cells; host or cells: HEK-293; conditions: fluorescence-based assay (values with asterisk), read-out: SERT pIC50 (converted)
T1 sequence (P31645 whole entry): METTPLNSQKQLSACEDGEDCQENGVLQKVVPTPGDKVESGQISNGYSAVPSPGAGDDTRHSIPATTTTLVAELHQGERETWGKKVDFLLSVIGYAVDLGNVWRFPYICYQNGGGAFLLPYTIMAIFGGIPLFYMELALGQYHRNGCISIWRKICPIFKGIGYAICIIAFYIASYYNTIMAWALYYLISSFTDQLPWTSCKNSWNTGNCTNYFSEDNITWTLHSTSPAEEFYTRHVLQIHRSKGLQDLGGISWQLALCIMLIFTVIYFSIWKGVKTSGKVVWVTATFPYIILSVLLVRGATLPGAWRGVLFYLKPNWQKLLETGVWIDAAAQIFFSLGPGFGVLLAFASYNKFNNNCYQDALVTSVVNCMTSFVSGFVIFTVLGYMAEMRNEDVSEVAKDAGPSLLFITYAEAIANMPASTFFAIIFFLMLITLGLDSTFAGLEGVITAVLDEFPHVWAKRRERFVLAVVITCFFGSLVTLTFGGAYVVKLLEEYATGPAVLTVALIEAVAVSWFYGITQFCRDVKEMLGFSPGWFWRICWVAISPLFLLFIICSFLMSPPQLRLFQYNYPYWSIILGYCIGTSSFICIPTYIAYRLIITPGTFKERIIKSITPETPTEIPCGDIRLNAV

| IC50 [nM] | SMILES |
| --- | --- |
| ≤ 10 | Fc1c(Cl)cccc1O[C@@H](C1CC1)[C@H]1CCNC1 [Example 16-11, (S)-3-[(S)-(3-Chloro-2-fluorophenoxy)cyclopropylmethyl]pyrrolidine] |
| ≤ 10 | Cc1cccc(O[C@@H](C2CC2)[C@H]2CCNC2)c1C [Example 16-12, (S)-3-[(S)cyclopropyl-(2,3-dimethylphenoxy)-methyl]pyrrolidine] |
| ≤ 10 | Clc1cccc(OC(C2CCCC2)C2CCNC2)c1Cl (centres unmarked) [Example 18-1, 3-[Cyclopentyl-(2,3-dichlorophenoxy)methyl]pyrrolidine] |
| ≤ 10 | Cc1cc(Cl)ccc1OC(C1CCCC1)C1CCNC1 (centres unmarked) [Example 18-7, 3-[(4-Chloro-2-methylphenoxy)cyclopentylmethyl]pyrrolidine] |
| ≤ 100 | Clc1cccc(Cl)c1OC(C1CCCC1)C1CCNC1 (centres unmarked) [Example 18-8, 3-[Cyclopentyl-(2,6-dichlorophenoxy)methyl]pyrrolidine] |
| ≤ 10 | Clc1cc(Cl)cc(OC(C2CCCC2)C2CCNC2)c1 (centres unmarked) [Example 18-9, 3-[Cyclopentyl-(3,5-dichlorophenoxy)methyl]pyrrolidine] |
| ≤ 100 | Clc1cc(Cl)cc(OC(C2CCCC2)C2CCNC2)c1 (centres unmarked) [Example 18-10, 3-[Cyclopentyl-(3,5-dichlorophenoxy)methyl]pyrrolidine] |
| ≤ 10 | Clc1ccc(OC(C2CCCC2)C2CCNC2)cc1 (centres unmarked) [Example 18-11, 3-[(4-Chlorophenoxy)cyclopentylmethyl]pyrrolidine] |
| ≤ 100 | Fc1ccc(OC(C2CCCC2)C2CCNC2)cc1 (centres unmarked) [Example 18-12, 3-[Cyclopentyl-(4-fluorophenoxy)methyl]pyrrolidine] |

The next lines start with the molecule.

| SMILES | IC50 [nM] |
| --- | --- |
| CCOc1cc(Cl)ccc1O[C@@H](C1CC1)[C@H]1CCNC1 [Example 16-41, (S)-3-[(S)-(4-Chloro-2-ethoxyphenoxy)cyclopropylmethyl]pyrrolidine] | ≤ 100 |
| CCOc1cc(Cl)ccc1O[C@H](C1CC1)[C@H]1CCNC1 [Example 16-42, (S)-3-[(R)-(4-Chloro-2-ethoxyphenoxy)cyclopropylmethyl]pyrrolidine] | ≤ 100 |
| Fc1ccc(O[C@@H](C2CC2)[C@H]2CCNC2)c(F)c1F [Example 16-46, (S)-3-[(S)cyclopropyl-(2,3,4-trifluorophenoxy)methyl]pyrrolidine] | ≤ 10 |
| Fc1ccc(O[C@H](C2CC2)[C@H]2CCNC2)c(F)c1F [Example 16-47, (S)-3-[(R)cyclopropyl-(2,3,4-trifluorophenoxy)methyl]pyrrolidine] | ≤ 10 |
| Fc1c(Cl)ccc(O[C@@H](C2CC2)[C@H]2CCNC2)c1F [Example 16-48, (S)-3-[(S)-(4-Chloro-2,3-difluorophenoxy)cyclopropylmethyl]pyrrolidine] | ≤ 10 |
| Fc1c(Cl)ccc(O[C@H](C2CC2)[C@H]2CCNC2)c1F [Example 16-49, (S)-3-[(R)-(4-Chloro-2,3-difluorophenoxy)cyclopropylmethyl]pyrrolidine] | ≤ 10 |
| Fc1cc(Cl)cc(O[C@@H](C2CC2)[C@H]2CCNC2)c1Cl [Example 16-57, (S)-3-[(S)cyclopropyl-(2,5-dichloro-3-fluorophenoxy)methyl]pyrrolidine] | ≤ 100 |
| Cc1cc(Cl)cc(Cl)c1O[C@H](C1CC1)[C@H]1CCNC1 [Example 16-78, (S)-3-[(R)cyclopropyl-(2,4-dichloro-6-methylphenoxy)methyl]pyrrolidine] | ≤ 100 |
| COc1cc(Cl)cc(O[C@@H](C2CC2)[C@H]2CCNC2)c1 [Example 16-100, (S)-3-[(S)-(3-Chloro-5-methoxyphenoxy)cyclopropylmethyl]pyrrolidine] | ≤ 100 |
| Cc1cc(O[C@@H](C2CC2)[C@H]2CCNC2)cc(C)c1Cl [Example 16-101, (S)-3-[(S)-(4-Chloro-3,5-dimethylphenoxy)cyclopropylmethyl]pyrrolidine] | ≤ 10 |

biological target: T2, hNET (Homo sapiens, UniProt P23975); assay: fluorescence-based norepinephrine reuptake inhibition assay (Tsuruda et al. 2010; data indicated by an asterisk); format: cell-based; design: expressed in transfected cells; host or cells: HEK-293; conditions: norepinephrine reuptake inhibition, fluorescence-based assay (values with asterisk)
T2 sequence (P23975 whole entry): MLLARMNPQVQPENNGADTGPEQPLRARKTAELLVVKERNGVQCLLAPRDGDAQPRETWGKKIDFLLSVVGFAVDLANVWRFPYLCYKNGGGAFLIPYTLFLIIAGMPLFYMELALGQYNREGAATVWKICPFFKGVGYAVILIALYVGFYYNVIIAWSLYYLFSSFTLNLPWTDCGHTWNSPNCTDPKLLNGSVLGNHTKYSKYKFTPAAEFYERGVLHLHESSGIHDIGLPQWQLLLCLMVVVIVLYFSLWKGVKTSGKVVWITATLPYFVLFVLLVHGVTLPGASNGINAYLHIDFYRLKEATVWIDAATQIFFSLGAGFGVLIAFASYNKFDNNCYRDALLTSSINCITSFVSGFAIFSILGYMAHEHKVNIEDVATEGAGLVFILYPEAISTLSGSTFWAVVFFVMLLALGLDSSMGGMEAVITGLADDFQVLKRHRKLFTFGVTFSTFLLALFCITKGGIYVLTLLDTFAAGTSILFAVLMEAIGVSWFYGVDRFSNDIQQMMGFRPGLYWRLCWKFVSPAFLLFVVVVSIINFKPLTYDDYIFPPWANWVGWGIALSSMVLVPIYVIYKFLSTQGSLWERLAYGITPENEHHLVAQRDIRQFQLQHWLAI

| NET pIC50 | SMILES |
| --- | --- |
| ≧8.0* | Clc1cc(Cl)cc(OC(C2CCCC2)C2CCNC2)c1 (centres unmarked) [Example 18-10, 3-[Cyclopentyl-(3,5-dichlorophenoxy)methyl]pyrrolidine] |

same assay, conditions: norepinephrine reuptake inhibition, fluorescence-based assay (values with asterisk); read-out: NET pIC50 (converted)

| IC50 [nM] | SMILES |
| --- | --- |
| ≤ 10 | Fc1c(Cl)cccc1O[C@@H](C1CC1)[C@H]1CCNC1 [Example 16-11, (S)-3-[(S)-(3-Chloro-2-fluorophenoxy)cyclopropylmethyl]pyrrolidine] |
| ≤ 10 | Cc1cccc(O[C@@H](C2CC2)[C@H]2CCNC2)c1C [Example 16-12, (S)-3-[(S)cyclopropyl-(2,3-dimethylphenoxy)-methyl]pyrrolidine] |
| ≤ 10 | Clc1cccc(OC(C2CCCC2)C2CCNC2)c1Cl (centres unmarked) [Example 18-1, 3-[Cyclopentyl-(2,3-dichlorophenoxy)methyl]pyrrolidine] |
| ≤ 100 | Cc1cc(Cl)ccc1OC(C1CCCC1)C1CCNC1 (centres unmarked) [Example 18-7, 3-[(4-Chloro-2-methylphenoxy)cyclopentylmethyl]pyrrolidine] |
| ≤ 10 | Clc1cccc(Cl)c1OC(C1CCCC1)C1CCNC1 (centres unmarked) [Example 18-8, 3-[Cyclopentyl-(2,6-dichlorophenoxy)methyl]pyrrolidine] |
| ≤ 10 | Clc1cc(Cl)cc(OC(C2CCCC2)C2CCNC2)c1 (centres unmarked) [Example 18-9, 3-[Cyclopentyl-(3,5-dichlorophenoxy)methyl]pyrrolidine] |
| ≤ 100 | Clc1ccc(OC(C2CCCC2)C2CCNC2)cc1 (centres unmarked) [Example 18-11, 3-[(4-Chlorophenoxy)cyclopentylmethyl]pyrrolidine] |
| ≤ 100 | Fc1ccc(OC(C2CCCC2)C2CCNC2)cc1 (centres unmarked) [Example 18-12, 3-[Cyclopentyl-(4-fluorophenoxy)methyl]pyrrolidine] |

Continued, molecule first:

| SMILES | IC50 [nM] |
| --- | --- |
| CCOc1cc(Cl)ccc1O[C@@H](C1CC1)[C@H]1CCNC1 [Example 16-41, (S)-3-[(S)-(4-Chloro-2-ethoxyphenoxy)cyclopropylmethyl]pyrrolidine] | ≤ 10 |
| CCOc1cc(Cl)ccc1O[C@H](C1CC1)[C@H]1CCNC1 [Example 16-42, (S)-3-[(R)-(4-Chloro-2-ethoxyphenoxy)cyclopropylmethyl]pyrrolidine] | ≤ 100 |
| Fc1ccc(O[C@@H](C2CC2)[C@H]2CCNC2)c(F)c1F [Example 16-46, (S)-3-[(S)cyclopropyl-(2,3,4-trifluorophenoxy)methyl]pyrrolidine] | ≤ 10 |
| Fc1ccc(O[C@H](C2CC2)[C@H]2CCNC2)c(F)c1F [Example 16-47, (S)-3-[(R)cyclopropyl-(2,3,4-trifluorophenoxy)methyl]pyrrolidine] | ≤ 10 |
| Fc1c(Cl)ccc(O[C@@H](C2CC2)[C@H]2CCNC2)c1F [Example 16-48, (S)-3-[(S)-(4-Chloro-2,3-difluorophenoxy)cyclopropylmethyl]pyrrolidine] | ≤ 10 |
| Fc1c(Cl)ccc(O[C@H](C2CC2)[C@H]2CCNC2)c1F [Example 16-49, (S)-3-[(R)-(4-Chloro-2,3-difluorophenoxy)cyclopropylmethyl]pyrrolidine] | ≤ 10 |
| Fc1cc(Cl)cc(O[C@@H](C2CC2)[C@H]2CCNC2)c1Cl [Example 16-57, (S)-3-[(S)cyclopropyl-(2,5-dichloro-3-fluorophenoxy)methyl]pyrrolidine] | ≤ 100 |
| Cc1cc(Cl)cc(Cl)c1O[C@H](C1CC1)[C@H]1CCNC1 [Example 16-78, (S)-3-[(R)cyclopropyl-(2,4-dichloro-6-methylphenoxy)methyl]pyrrolidine] | ≤ 100 |
| COc1cc(Cl)cc(O[C@@H](C2CC2)[C@H]2CCNC2)c1 [Example 16-100, (S)-3-[(S)-(3-Chloro-5-methoxyphenoxy)cyclopropylmethyl]pyrrolidine] | ≤ 10 |
| Cc1cc(O[C@@H](C2CC2)[C@H]2CCNC2)cc(C)c1Cl [Example 16-101, (S)-3-[(S)-(4-Chloro-3,5-dimethylphenoxy)cyclopropylmethyl]pyrrolidine] | ≤ 100 |

biological target: T2, hNET; assay: hNET membrane radioligand binding assay (3H-nisoxetine), Assay 1; conditions: not given

| Ki [nM] | SMILES |
| --- | --- |
| ≤ 10 | Fc1c(Cl)cccc1O[C@@H](C1CC1)[C@H]1CCNC1 [Example 16-11, (S)-3-[(S)-(3-Chloro-2-fluorophenoxy)cyclopropylmethyl]pyrrolidine] |
| ≤ 10 | Cc1cccc(O[C@@H](C2CC2)[C@H]2CCNC2)c1C [Example 16-12, (S)-3-[(S)cyclopropyl-(2,3-dimethylphenoxy)-methyl]pyrrolidine] |

More lines, now with the values behind:

| SMILES | Ki [nM] |
| --- | --- |
| CCOc1cc(Cl)ccc1O[C@@H](C1CC1)[C@H]1CCNC1 [Example 16-41, (S)-3-[(S)-(4-Chloro-2-ethoxyphenoxy)cyclopropylmethyl]pyrrolidine] | ≤ 10 |
| CCOc1cc(Cl)ccc1O[C@H](C1CC1)[C@H]1CCNC1 [Example 16-42, (S)-3-[(R)-(4-Chloro-2-ethoxyphenoxy)cyclopropylmethyl]pyrrolidine] | ≤ 100 |
| Fc1ccc(O[C@@H](C2CC2)[C@H]2CCNC2)c(F)c1F [Example 16-46, (S)-3-[(S)cyclopropyl-(2,3,4-trifluorophenoxy)methyl]pyrrolidine] | ≤ 10 |
| Fc1ccc(O[C@H](C2CC2)[C@H]2CCNC2)c(F)c1F [Example 16-47, (S)-3-[(R)cyclopropyl-(2,3,4-trifluorophenoxy)methyl]pyrrolidine] | ≤ 100 |

biological target: T1, hSERT; assay: hSERT membrane radioligand binding assay (3H-citalopram), Assay 1; conditions: SERT pKi, hSERT HEK-293 membranes, 1.0 nM 3H-citalopram; values given as lower bounds
Procedure: Membrane radioligand binding assays were used to measure inhibition of labeled ligand (^3H-citalopram or ^3H-nisoxetine or ^3H-WIN35428) binding to membranes prepared from cells expressing the respective human recombinant transporter (hSERT or hNET or hDAT) in order to determine the pKi values of test compounds at the transporters.
Recombinant human embryonic kidney (HEK-293) derived cell lines stably transfected with hSERT or hNET, respectively, were grown in DMEM medium supplemented with 10% dialyzed FBS (for hSERT) or FBS (for hNET), 100 μg/mL penicillin, 100 μg/mL streptomycin, 2 mM L-glutamine and 250 μg/mL of the aminoglycoside antibiotic G418, in a 5% CO2 humidified incubator at 37° C. When cultures reached 80% confluence, the cells were washed thoroughly in PBS (without Ca^2+ and Mg^2+) and lifted with 5 mM EDTA in PBS. Cells were pelleted by centrifugation, resuspended in lysis buffer (10 mM Tris-HCl, pH7.5 containing 1 mM EDTA), homogenized, pelleted by centrifugation, then resuspended in 50 mM Tris-HCl, pH 7.5 and 10% sucrose at 4° C. Protein concentration of the membrane suspension was determined using a Bio-Rad Bradford Protein Assay kit. Membranes were snap frozen and stored at −80° C.
Binding assays were performed in a 96-well assay plate in a total volume of 200 μl assay buffer (50 mM Tris-HCl, 120 mM NaCl, 5 mM KCl, pH 7.4) with 0.5, 1, and 3 μg membrane protein, for SERT, NET and DAT, respectively.
Stock solutions (10 mM in DMSO) of test compound were prepared and serial dilutions made using Dilution Buffer (50 mM Tris-HCl, 120 mM NaCl, 5 mM KCl, pH 7.4, 0.1% BSA, 400 μM ascorbic acid).
Following a 60 minute incubation at 22° C. (or a period sufficient to reach equilibrium), the membranes were harvested by rapid filtration over a 96-well UniFilter GF/B plate, pretreated with 0.3% polyethyleneimine, and washed 6 times with 300 μl wash buffer (50 mM Tris-HCl, 0.9% NaCl, pH 7.5 at 4° C.). Plates were dried overnight at room temperature, approximately 45 μl of MicroScint™-20 (Perkin Elmer) added and bound radioactivity quantitated via liquid scintillation spectroscopy. Inhibition curves and saturation isotherms were analyzed using GraphPad Prism Software package (GraphPad Software, Inc., San Diego, Calif.). IC50 values were generated from concentration response curves using the Sigmoidal Dose Response (variable slope) algorithm in Prism GraphPad.

| Ki [nM] | SMILES |
| --- | --- |
| ≤ 10 | Fc1c(Cl)cccc1O[C@@H](C1CC1)[C@H]1CCNC1 [Example 16-11, (S)-3-[(S)-(3-Chloro-2-fluorophenoxy)cyclopropylmethyl]pyrrolidine] |
| ≤ 10 | Cc1cccc(O[C@@H](C2CC2)[C@H]2CCNC2)c1C [Example 16-12, (S)-3-[(S)cyclopropyl-(2,3-dimethylphenoxy)-methyl]pyrrolidine] |

Further lines, the molecule ahead of its results:

| SMILES | Ki [nM] |
| --- | --- |
| CCOc1cc(Cl)ccc1O[C@@H](C1CC1)[C@H]1CCNC1 [Example 16-41, (S)-3-[(S)-(4-Chloro-2-ethoxyphenoxy)cyclopropylmethyl]pyrrolidine] | ≤ 10 |
| CCOc1cc(Cl)ccc1O[C@H](C1CC1)[C@H]1CCNC1 [Example 16-42, (S)-3-[(R)-(4-Chloro-2-ethoxyphenoxy)cyclopropylmethyl]pyrrolidine] | ≤ 10 |
| Fc1ccc(O[C@@H](C2CC2)[C@H]2CCNC2)c(F)c1F [Example 16-46, (S)-3-[(S)cyclopropyl-(2,3,4-trifluorophenoxy)methyl]pyrrolidine] | ≤ 10 |
| Fc1ccc(O[C@H](C2CC2)[C@H]2CCNC2)c(F)c1F [Example 16-47, (S)-3-[(R)cyclopropyl-(2,3,4-trifluorophenoxy)methyl]pyrrolidine] | ≤ 10 |
